Source: patent US10682370B2, “Topical antiviral composition containing a local anesthetic and method of making the same” (priority 2013, dated 2020)
Counter-ions that a name gives are not always drawn.

How the values were obtained:
[1] = tested on: HSV-1; settings: in vitro; cited from earlier work
[2] = Accelerated stability of sorivudine/lidocaine cream formulas stored in 40° C./75% RH; type: physicochemical
Excerpt: In the above Table 3, the six (6)-month accelerated stability assay data's for both formulations, i.e. Example 8 and Example 9 (containing BHT) were stable.

[3] = administered concurrently with 5-FU; cited from earlier work
[4] = acidic environment, accelerated test
[5] = neutral environment, 6 month accelerated test

Row | Assay of sorivudine remaining [2, 5] [%] | SMILES | Selectivity ratio for the inhibitory activity against HSV-1 [1] | Change of assay (in words) [2, 4] | Change of assay (in words) [2, 5] | Toxicity on concurrent administration with 5-fluorouracil (5-FU) [3]
1 |  | Nc1nc2c(ncn2COCCO)c(=O)[nH]1 [Acyclovir, acyclovir] | about 2000 |  |  | 
2 |  | CCN(CC)CC(=O)Nc1c(C)cccc1C [lidocaine HCl, 2-(diethylamino)-N-(2,6-dimethylphenyl)-acetamide] |  | no change | almost no change | 
3 | 66 | O=c1[nH]c(=O)n([C@@H]2O[C@H](CO)[C@@H](O)[C@@H]2O)cc1/C=C/Br [sorivudine] |  | no change |  | major toxicity (myelosuppression)
